In patent publication US12616663B2, “Plant-derived exosome-like nanoparticles inhibit bacterial pathogenicity” (priority 2019, dated 2026):

Assays:
[1] = test system: outer membrane protein (OMP) mRNA; type: cell-based, Porphyromonas gingivalis
[2] = test system: P. gingivalis total cell lysates; assay: SPR: P. gingivalis total cell lysates run over immobilized liposomes; type: binding, Porphyromonas gingivalis; details: LIP-1 sensor, total cell lysates as analyte
Protocol: (§1) Liposome preparation. Total lipids from ginger exosome-like nanoparticles (GELNs) were extracted with chloroform:methanol (2:1, v/v). Thin layer chromatography (TLC) was performed with standard PA(34:2). The corresponding PA band was excised from the TLC plate and remaining bands were pool together. GELNs total lipids, PA depleted lipids and PA(34:2) were completely dried under stream of nitrogen gas. The lipid film was suspended in HEPES-buffered saline (HBS) running buffer (20 mM HEPES, 150 mM NaCl, pH 7.4) and gently vortexed and sonicated for 10 minutes until clear solution was formed. The liposome suspension was extruded through a poly carbonated membrane filter syringe with pore size of 100 nm. The size of liposome was confirmed by NanoSight NS300 (Malvern Panalytical Inc, MA, USA). Total lipids were determined by measuring total phosphate levels.
Surface Plasmon Resonance (SPR). SPR experiments were conducted on an OPENSPR™ (Nicoya, Lifesciences, ON, CA). All experiments were carried on LIP-1 sensor (Nicoya, Lifesciences). Tests were run at flow rate of 20 μl/minute using HBS running buffer (20 mM HEPES, 150 mM NaCl, pH 7.4). First, LIP-1 sensor chip was cleaned with Octyl 0-D-glucopyranoside (40 mM) and CHAPS (20 mM). […] The sensograms were analyzed using TRACEDRAWER™ brand kinetic Analysis software. […]

[3] = test system: AraC transcription factor mRNA; type: cell-based, Porphyromonas gingivalis
[4] = test system: hemagglutinin (HA) mRNA; type: cell-based, Porphyromonas gingivalis
[5] = test system: fimbrillin (fimA); assay: fimA expression (real-time PCR, western blot); type: cell-based, Porphyromonas gingivalis; details: GELNs, total lipids or PA (34:2) 6 hours vs DMSO
Protocol: (§2) RNA isolation and quantitative real time PCR (qRT-PCR). Total RNA was isolated from P. gingivalis and TIGK cells using TRIZOL™ brand reagent according to the manufacturer's protocol (Invitrogen). RNA (1 μg) was converted into cDNA with ISCRIPT™ brand cDNA synthesis kit (Bio-Rad, Hercules, California, United States of America). qRT-PCR was performed for quantification of gene expression, cDNA samples were amplified with SSOFAST™ EVAGREEN® Supermix brand qRT-PCR cocktail in CFX96 Real-time PCR system (Bio-Rad). The mRNA expression was quantified by ΔΔCt method using 16S rRNA expression as an internal control for bacterial gene expression.

[6] = test system: P. gingivalis attachment to TIGK cells; assay: Attachment of P. gingivalis to epithelial cells (ELISA, confocal microscopy); type: cell-based, Porphyromonas gingivalis; human TIGK cells; details: GELNs vs PBS; total lipids (from 4.0×10^8 particles), 50 nM PA (34:2) vs DMSO; miRNAs vs scrambled control
Protocol: Culture of TIGK cells. Human telomerase immortalized keratinocytes (TIGKs) derived from gingival epithelium were obtained from Dr. Lamont Laboratory and maintained at 37° C. and 5% CO2 in DERMALIFE®-K brand serum free culture medium (Lifeline Cell Technology, Carlsbad, California, United States of America).
Attachment to epithelial cells. The amount of P. gingivalis attachment to the surface of gingival epithelial cells were determined. Briefly, telomerase immortalized gingival keratinocytes (TIGKs), derived from primary gingival epithelial cell lines, were cultured in 96-well plates for 24 hours. Then, the cells were fixed with 5% buffered formalin for 1 hour, and washed with PBS. […] Cells were washed with PBS to remove non-adherent bacteria. Then, wells were incubated with P. gingivalis whole-cell antibodies (1:10,000) at 37° C. for 1 hour, then washed with PBS. Binding was detected with a secondary horse radish peroxidase (HRP)-anti-rabbit antibody (1:5,000) and 3,3′,5,5′-tetramethylbenzidine substrate (Sigma), and recorded at 450 nm.
Then, the TIGK cells were fixed with 5% buffered formalin for 10 minutes. P. gingivalis cells were stained with an antibody raised against P. gingivalis (1:1000 dilution) incubated for 3 hour at room temperature. After extensive washing with PBS, cells were incubated with ALEXAFLUOR® 568-conjugated IgG (1:5000 dilution) for 1 hour at room temperature. […]

[7] = molecular target: T1, lysine specific (Kgp) gingipain (Porphyromonas gingivalis, UniProt B2RLK2); type: cell-based; details: GELNs and GELN lipids 2×10^8 and 4×10^8 particles/ml vs PBS control; PA(34:2), aly-miR159a vs control
T1 construct: endogenous in cells; host or cells: Porphyromonas gingivalis, BugBuster lysate of treated bacteria

[8] = test system: arginine-specific (Rgp) gingipain; assay: Gingipain proteolytic activity (N-benzoyl-L-arginine-pNA); type: cell-based, Porphyromonas gingivalis; details: GELNs and GELN lipids 2×10^8 and 4×10^8 particles/ml vs PBS control; PA(34:2), aly-miR159a vs control
Protocol: Gingipain proteolytic activity. The proteolytic activity of arginine-specific (Rgp) and lysine specific (Kgp) gingipain was measured. P. gingivalis was cultured to mid-log phase and treated with and without GELNs (2.0-4.0×10^8 particles/ml) for 6 hour. The bacterial cells were collected by centrifugation at 5000 g for 10 minutes, washed, and lysed with BUGBUSTER® brand lysis reagent (Millipore Sigma, Burlington, MA, USA). The chromogenic p-nitroanilide substrates N-benzoyl-L-arginine-pNA or toluenesulfonyl-glycyl-prolyl-L-lysine-pNA (Sigma) were used to measure RgpA/B and Kgp respectively. Bacterial cell lysates (50 μl) were pre-incubated with assay buffer containing 200 mM Tris-HCl, 5 mM CaCl2/150 mM NaCl and supplemented with 10 mM cysteine in 96-well plate, incubated at 37° C. for 10 minutes, and 0.5 mM of specific substrate was added to each well. The rate of substrate hydrolysis and accumulation of p-nitroanillide was monitored spectrophotometrically at 405 nm. The enzyme activity was calculated and given as mOD/min/μl.

[9] = test system: P. gingivalis; assay: Gliding motility in U shaped glass tube with 0.2% agar; type: cell-based, Porphyromonas gingivalis; details: GELNs 4.0×10^8 particles/ml, PA (34:2) 5 μg/ml vs PBS; miRNAs vs scrambled miRNA; 48 hours
Protocol: Gliding motility. Gliding motility of P. gingivalis was measured. P. gingivalis was reacted with GELNs (4×10^8 particles/ml) or total lipids extracted from GELNs or miRNAs such as aly-miR-159a-3p, gma-miR166u, and gma-miR166p. A sterile “U” shaped glass tube containing 0.2% agar as suspension medium was produced. P. gingivalis (100 μl) was inoculated one edge of the tube and incubated at anaerobic chamber for 48 hours, the location of bacteria was visualized by cloudiness, and distance movement of P. gingivalis was calculated.
Transferring gingipain from intracellular locations to the cell surface is a critical step in the pathogenesis of P. gingivalis. Gingipains are synthesized with an N-terminal signal peptide targeting them to the Sec translocon where they are exported through the outer-membranes via a novel secretion system referred to as type IX Secretion System (T9SS). T9SS plays a critical role in bacterial gliding motility that could contribute to P. gingivalis pathogenesis. Therefore, it was determined whether GELNs, GELN-derived miRNAs, and/or GELN lipids could play a role in inhibition of gliding motility of P. gingivalis. P. gingivalis were pretreated with GELNs (4.0×10^8 particles/ml) or PA (34:2; 5 μg/ml) or transduced with GELN-derived aly-miR159a, gma-miR166u, or gma-miR166p. […]

[10] = test system: P. gingivalis invasion into TIGK cells; assay: P. gingivalis invasion, antibiotic protection assay (CFU); type: cell-based, Porphyromonas gingivalis; human TIGK cells; details: GELNs total lipids or PA (34:2) vs DMSO control; miRNA-transduced bacteria
[11] = test system: P. gingivalis; assay: Bacterial growth, optical density at 600 nm; type: cell-based, Porphyromonas gingivalis
Protocol: Bacterial strain and growth condition. P. gingivalis 33277 was cultured in tryptic soy broth supplemented with yeast extract (1 mg/ml), hemin (5 μg/ml) and menadione (1 μg/ml) and incubated at 37° C. in anaerobic chamber (85% N2, 10% H2, 5% CO2). S. gordonii DL1 was cultured in brain-heart infusion broth media containing 0.5% yeast extract and incubated at anaerobically at 37° C.
Bacterial growth. […] P. gingivalis and S. gordonii growth was determined by measuring optical density at 600 nm.

[12] = test system: HBP35 synthetic peptide (functional domain of hemin binding protein 35); assay: SPR: HBP35 synthetic peptide as analyte over immobilized liposomes; set-up: species or system Porphyromonas gingivalis; details: liposomes immobilized on LIP-1 sensor; non-specific peptide as negative control
Protocol: as §1, with “The size of liposome was confirmed by NanoSight NS300 (Malvern Panalytical Inc, MA, USA).” left out
Surface Plasmon Resonance (SPR). […] The sensograms were analyzed using TRACEDRAWER™ brand kinetic Analysis software.
Whether the HBP35 synthetic peptide directly bound to PA (34:2) and/or PA (34:1) of GELNs lipids was also tested. […] The lipid-protein interactions were determined by SPR sensograms. Fluorescent confocal micrographs of P. gingivalis labelled with PKH67 (green fluorescence) and GELNs and LipidG liposomes were labelled with PKH26 (red fluorescence). […] Particles and liposomes taken up by P. gingivalis were also quantified by flow cytometry. […]

[13] = test system: rod shape determining protein (RodA) mRNA; type: cell-based, Porphyromonas gingivalis
[14] = test system: T9SS family members porK, porL, porM, porN, porP, porQ, porT, porV, porW, porX, porY, and sov; assay: qPCR of T9SS family member expression; type: cell-based, Porphyromonas gingivalis; details: GELNs 4.0×10^8 particles/ml, lipids from 4.0×10^8 particles, 5 μg PA (34:2) 6 hours; miRNAs 24 hours vs scrambled
Protocol: as §2
To further determine the molecular mechanisms underlying GELN-mediated inhibition of P. gingivalis gliding motility, the roles of GELNs, GELNs lipids, and GELN-derived miRNAs in modulating the expression of genes related to T9SS were determined. P. gingivalis was treated with GELNs (4.0×10^8 particles/ml) and GELNs lipids derived from 4.0×10^8 particles and 5 μg of PA (34:2) for 6 hours, and miRNAs aly-miR159a, gma-miR166u, and gma-miR166p were transduced into P. gingivalis by incubation for 24 hours. […] Further, it was determined that aly-miR159a-3p has potential binding sites in the T9SS C-terminal target domain containing protein PGN_0152; see FIG. 8H).

| Molecule | outer membrane protein (OMP) mRNA expression [1] | interaction of P. gingivalis proteins with immobilized nanoparticles (SPR sensograms) [2] | AraC mRNA expression [3] | hemagglutinin (HA) mRNA expression [4] | fimA expression (mRNA and protein levels) [5] | surface attachment of P. gingivalis to TIGK cells (ELISA) [6] | lysine-specific (Kgp) gingipain activity [7] | arginine-specific (Rgp) gingipain activity [8] | gliding motility of P. gingivalis [9] | P. gingivalis invasion into TIGK cells [10] | concentration at which P. gingivalis growth was inhibited ([11]; 0-50 μg/ml tested, 24 hours, very low concentration compared to other lipid compounds) | direct interaction with HBP35 synthetic peptide (SPR sensogram peaks) [12] | RodA mRNA expression [13] | T9SS family members whose expression was significantly inhibited [14] | blocking of GELN lipid-mediated inhibition of P. gingivalis growth ([11]; GELN total lipids (4.0 and 6.0×10^8 particles) pre-incubated with peptide) | blocking of PA-mediated inhibition of P. gingivalis growth ([11]; PA (34:2) pre-incubated with peptide) |
| --- | --- | --- | --- | --- | --- | --- | --- | --- | --- | --- | --- | --- | --- | --- | --- | --- |
| CCCCC/C=C\C/C=C\CCCCCCCC(=O)O[C@H](COC(=O)CCCCCCCCCCCCCCC)COP(=O)(O)O [PA (34:2), 1-palmitoyl-2-linoleoyl-sn-glycero-3-phosphate] | inhibited | able to interact | inhibited | not significant | significantly decreased | significantly inhibited surface attachment | contributed to inhibit | contributed to inhibit | significantly inhibited the motility | significant decrease | 5 µg/mL | directly interacted | inhibited | 9/12 |  |  |
| WPRVGQLFIALDQTLGIPGFPTFSVCRME [HBP35 synthetic peptide] |  |  |  |  |  |  |  |  |  |  |  |  |  |  | significantly blocked | significantly blocked |
